Measurements taken from patent publication US6730667B2, “Iontophoresis disc pain blocker” (priority 2001, dated 2004).

Test system: overactive nerve fibers
Test: Iontophoretic delivery, practical patient experience
Format: in vivo, human
Conditions: ketamine at 2 to 4% or higher, clonidine at 0.2 to 0.4%, unbuffered; positive polarity
Experimental: Once the desired nerve or nerves are identified, a preselected composition of pharmaceuticals 14 is prepared for an administration step 16. Administration may be topical, by methods including gel 18 or spray 20. Iontophoresis is a preferred method. The composition is applied to a patch 22 for iontophoretic administration. Suitable patch structures include both single and multi-layered gel matrix discs. For example, a patch may be arranged with one or more layers of pH buffered electrolytes between drug layers. Ionotphoresis 24 delivers the drugs by application of tiny unipolar or switchable bipolar micro amperage current to the gel disc over the next 24 to 36 plus hours, producing blockade to the excessive nerve firing.
These are ketamine, which is an NMDA receptor blocker, at 2 to 4% or higher, and clonidine, which is an […], at 0.2 to 0.4% concentration, unbuffered. Both have positive polarity, and are positive charged. Selection of positive polarity would push the drug along the pathway of least resistance, finding the involved overactive nerve fibers; and pain blockade would occur.

| SMILES | suitability for delivery by iontophoresis |
| --- | --- |
| Clc1cccc(Cl)c1N=C1NCCN1 [clonidine] | work well |
| CNC1(c2ccccc2Cl)CCCCC1=O (centres unmarked) [ketamine] | work well |
